Test results as given in patent US6143769A, “Phenylacetic acid benzylamides” (Karl Thomae GmbH, priority 1983, dated 2000).
Like-named read-outs stand apart in the source and are kept apart here.

Legend:
[1] = after administration of racemate
Description: (§1) More specifically, the studies which follow were carried out on healthy male volunteers in whom the levels of glucose and active substance in the course of time were determined:
(§2) In the interests of more precise clarification, study 5 was carried out (randomised, open, crossover). […] 2 hours after administration a standard breakfast (B) was eaten, 5 hours after administration a standard lunch (L) was eaten and 10 hours after administration a standard dinner (D) was eaten. Blood samples were taken at different times. The glucose concentrations were measured in the plasma as in study 1. […] The plasma concentrations of AG-EE 624 ZW were calculated as the difference between the two concentrations found:

[2] = tested on: rats; assay: Acute toxicity of (S)-enantiomer, single oral dose 1000 mg/kg, rats; format: in vivo; settings: 1000 mg/kg p.o.
[3] = tested on: blood sugar; assay: Blood sugar-lowering effect of the enantiomers in fasted female rats (oral); format: in vivo
Description: The substances to be investigated were suspended in 1.5% methylcellulose immediately before the start of the test and administered into the oesophagus. […] Glucose was measured in the supernatant by the hexokinase method using an analytical photometer. The statistical evaluation was carried out using the Student's t-test with p=0.05 as the limit of significance. Table 1 which follows contains the statistically significant values as percentage deviations from the control: […]

[4] = clinical; settings: human, plasma, 1 mg
Description: as §1, §2

[5] = Study 3: plasma concentration of active substance, single test subject; format: in vivo, human
[6] = clinical; settings: human, plasma, po
Description: as §1
(§3) 0.25 hours after oral administration a standard breakfast (B) was eaten, 5.5 hours after administration a standard lunch (L) was eaten and 10 hours after administration a standard evening meal (D) was eaten. Blood samples were taken at different times. The glucose concentrations were determined from whole blood according to study 1. The AG-EE 623 ZW concentrations in the plasma were determined by a stereospecific competitive enzyme immunoassay (ELISA) with a detection limit of 0.5 ng/ml.
(§4) The AG-EE 623 ZW-specific ELISA used is based on polyclonal rabbit antibodies directed against AG-EE 623 ZW covalently bound to human serum albumin. The cross reaction with AG-EE 624 ZW is less than 1:100. Microtitre immunoplates were coated with these antibodies and, after washing and blocking of the plates, incubated with standard or unknown plasma samples at 4° C. for one hour with shaking. Then AG-EE 623 ZW coupled to horse-radish peroxidase was added and incubated for a further 4 hours under the same conditions. 1,2-phenylenediamine was used as substrate for photometrically quantifying the bound enzyme-coupled molecules.

[7] = tested on: glucose; assay: Study 4: whole blood glucose, AG-EE 623 ZW spray-dried tablets; format: in vivo, human
From the text: Blood samples were taken at different times.

[8] = for Maximum concentration: 2 mg tablet p.o.
Description: as §1, §3, §4

[9] = tested on: glucose; assay: Study 3: whole blood glucose, single fasting test subject, crossover; format: in vivo, human

With CCOc1cc(CC(=O)N[C@@H](CC(C)C)c2ccccc2N2CCCCC2)ccc1C(=O)O [AG-EE 623 ZW, (S)(+)-2-ethoxy-4-[N-[1-(2-piperidino-phenyl)-3-methyl-1-butyl]aminocarbonylmethyl]-benzoic acid] the “Elimination (comparison)” value [1] was “eliminated more rapidly than the ineffective enantiomer, AG-EE 624 ZW”, the Toxicity [2] was “virtually non-toxic” and the Deaths ([2]; 5 male and 5 female rats, 14 days) was “no animals died”. For the same compound, the “Glucose, percentage deviation from control” value (“Glucose, percentage deviation” below) ([3]; 0.015 mg/kg p.o., 1 h) was -17 percentage deviation, the “Glucose, percentage deviation” value ([3]; 0.015 mg/kg p.o., 2 h) was -36 percentage deviation and the “Glucose, percentage deviation” value ([3]; 0.015 mg/kg p.o., 3 h) was -37 percentage deviation. For the same compound, the “Glucose, percentage deviation” value ([3]; 0.015 mg/kg p.o., 4 h) was -32 percentage deviation, the “Glucose, percentage deviation” value ([3]; 0.015 mg/kg p.o., 5 h) was -35 percentage deviation and the “Glucose, percentage deviation” value ([3]; 0.015 mg/kg p.o., 6 h) was -35 percentage deviation. The “Blood sugar-lowering effect (in words)” value ([3]; rat) was “effective enantiomer”, the Duration of effect ([3]; rat, 0.015 mg/kg p.o.) was > 6 h and the MRT ([4]; iv) was 54 ± 36 min. For the same compound, the clearance ([4]; iv) was 443 ± 140 mL/min, the bioavailability ([4]; po) was 76 ± 20% and the “Maximum level relative to level after same dose of AG-EE 388 ZW” value ([5]; 2 mg) was “about one third”. For the same compound, the Maximum concentration ([5]; 2 mg capsule, listed as 623) was 24 ng/mL, the Active substance concentration ([5]; 2 mg, 1.25 h) was 0 ng/mL and the Active substance concentration ([5]; 2 mg, 2.50 h) was 0 ng/mL. It also gave an Active substance concentration ([5]; 2 mg, 3.00 h) of 0 ng/mL, an Active substance concentration ([5]; 2 mg, 3.50 h) of 0 ng/mL and an Active substance concentration ([5]; 2 mg, 4.00 h) of 0 ng/mL. For the same compound, the Active substance concentration ([5]; 2 mg, 6.00 h) was 0 ng/mL, the Active substance concentration ([5]; 2 mg, 7.00 h) was 0 ng/mL and the Cmax ([5]; human, plasma, po, 2 mg, 2 mg capsule, read-out: Maximum concentration) was 22 to 24 ng/mL. The concentration at 1.5 h ([5]; human, plasma, po, 2 mg, 1.50 h) was 22 ng/mL, the concentration at 1.75 h ([5]; human, plasma, po, 2 mg, 1.75 h) was 24 ng/mL and the concentration at 2 h ([5]; human, plasma, po, 2 mg, 2.00 h) was 7 ng/mL. For the same compound, the Tmax [6] was 30 min, the AUC(0-inf) ([6]; 0.5 mg) was 14.3 ± 8.6 ng·h/mL and the Cmax ([6]; 0.5 mg) was 15 ± 8 ng/mL. For the same compound, the MRT ([6]; 0.5 mg) was 54 ± 12 min, the Tmax ([6]; 0.5 mg) was 36 ± 6 min and the concentration at 0.25 h ([6]; 0.5 mg) was 8.4 ng/mL. The concentration at 0.5 h ([6]; 0.5 mg) was 4.7 ng/mL, the concentration at 0.75 h ([6]; 0.5 mg) was 1.6 ng/mL and the concentration at 1 h ([6]; 0.5 mg) was 7 ng/mL. For the same compound, the concentration at 1.5 h ([6]; 0.5 mg) was 2.6 ng/mL, the concentration at 2.09 h ([6]; 0.5 mg) was 1.2 ng/mL and the concentration at 3 h ([6]; 0.5 mg) was 0.3 ng/mL. The half-life ([6]; 0.5 mg) was 30 ± 12 min, the concentration at 0.25 h ([6]; 1 mg) was 14.5 ng/mL and the concentration at 0.5 h ([6]; 1 mg) was 27.9 ng/mL. The concentration at 0.75 h ([6]; 1 mg) was 24.2 ng/mL, the concentration at 1 h ([6]; 1 mg) was 15.3 ng/mL and the concentration at 1.5 h ([6]; 1 mg) was 7.8 ng/mL. The concentration at 2.09 h ([6]; 1 mg) was 4.7 ng/mL, the concentration at 3 h ([6]; 1 mg) was 1.4 ng/mL and the concentration at 0.25 h ([6]; 2 mg) was 24.1 ng/mL. For the same compound, the concentration at 0.5 h ([6]; 2 mg) was 50.4 ng/mL, the concentration at 0.75 h ([6]; 2 mg) was 41.1 ng/mL and the concentration at 1 h ([6]; 2 mg) was 29.9 ng/mL. It also gave a concentration at 1.5 h ([6]; 2 mg) of 13.5 ng/mL, a concentration at 2.09 h ([6]; 2 mg) of 8.8 ng/mL and a concentration at 3 h ([6]; 2 mg) of 4.3 ng/mL. The concentration at 4 h ([6]; 2 mg) was 1.5 ng/mL, the concentration at 5 h ([6]; 2 mg) was 0.4 ng/mL and the concentration at 6 h ([6]; 2 mg) was 0.2 ng/mL. For the same compound, the “Glucose (mean)” value ([7]; 0.5 mg tablet, 0 h) was 5.21 mmol/L, the “Glucose (mean)” value ([7]; 0.5 mg, 0.25 h (breakfast)) was 5.09 mmol/L and the “Glucose (mean)” value ([7]; 0.5 mg, 0.50 h) was 5.01 mmol/L. The “Glucose (mean)” value ([7]; 0.5 mg, 0.75 h) was 5.85 mmol/L, the “Glucose (mean)” value ([7]; 0.5 mg, 1.00 h) was 5.88 mmol/L and the “Glucose (mean)” value ([7]; 0.5 mg, 1.50 h) was 4.05 mmol/L. For the same compound, the “Glucose (mean)” value ([7]; 0.5 mg, 2.09 h (so in the source)) was 3.50 mmol/L, the “Glucose (mean)” value ([7]; 0.5 mg, 3.00 h) was 3.90 mmol/L and the “Glucose (mean)” value ([7]; 0.5 mg, 4.00 h) was 4.08 mmol/L. For the same compound, the “Glucose (mean)” value ([7]; 0.5 mg, 5.00 h) was 4.32 mmol/L, the “Glucose (mean)” value ([7]; 0.5 mg, 6.00 h) was 6.63 mmol/L and the “Glucose (mean)” value ([7]; 0.5 mg, 8.00 h) was 5.61 mmol/L. The “Glucose (mean)” value ([7]; 0.5 mg, 10.00 h (dinner)) was 4.81 mmol/L, the “Glucose (mean)” value ([7]; 0.5 mg, 24.00 h) was 4.82 mmol/L and the “Time of peak blood sugar lowering” value ([7]; 1 mg and 2 mg tablet) was 1.5 h. The “Duration of blood sugar lowering” value ([7]; 1 mg tablet) was “up to 2 hours”, the “Start of blood sugar lowering” value ([7]; 1 mg tablet) was 1.0 h and the “Glucose (mean)” value ([7]; 1 mg tablet, 0 h) was 4.62 mmol/L. For the same compound, the “Glucose (mean)” value ([7]; 1 mg, 0.25 h (breakfast)) was 4.62 mmol/L, the “Glucose (mean)” value ([7]; 1 mg, 0.50 h) was 4.57 mmol/L and the “Glucose (mean)” value ([7]; 1 mg, 0.75 h) was 5.36 mmol/L. The “Glucose (mean)” value ([7]; 1 mg, 1.00 h) was 4.72 mmol/L, the “Glucose (mean)” value ([7]; 1 mg, 1.50 h) was 2.98 mmol/L and the “Glucose (mean)” value ([7]; 1 mg, 2.09 h (so in the source)) was 3.20 mmol/L. For the same compound, the “Glucose (mean)” value ([7]; 1 mg, 3.00 h) was 3.69 mmol/L, the “Glucose (mean)” value ([7]; 1 mg, 4.00 h) was 4.05 mmol/L and the “Glucose (mean)” value ([7]; 1 mg, 5.00 h) was 3.94 mmol/L. For the same compound, the “Glucose (mean)” value ([7]; 1 mg, 6.00 h) was 6.48 mmol/L, the “Glucose (mean)” value ([7]; 1 mg, 8.00 h) was 5.37 mmol/L and the “Glucose (mean)” value ([7]; 1 mg, 10.00 h (dinner)) was 4.57 mmol/L. The “Glucose (mean)” value ([7]; 1 mg, 24.00 h) was 4.69 mmol/L, the “Duration of blood sugar lowering” value ([7]; 2 mg tablet) was ≤ 5 h and the “Start of blood sugar lowering” value ([7]; 2 mg tablet) was 0.75 h. The “Glucose (mean)” value ([7]; 2 mg tablet, 0 h) was 4.67 mmol/L, the “Glucose (mean)” value ([7]; 2 mg, 0.25 h (breakfast)) was 5.14 mmol/L and the “Glucose (mean)” value ([7]; 2 mg, 0.50 h) was 4.38 mmol/L. For the same compound, the “Glucose (mean)” value ([7]; 2 mg, 0.75 h) was 4.54 mmol/L, the “Glucose (mean)” value ([7]; 2 mg, 1.00 h) was 4.27 mmol/L and the “Glucose (mean)” value ([7]; 2 mg, 1.50 h) was 2.65 mmol/L. The “Glucose (mean)” value ([7]; 2 mg, 2.09 h (so in the source)) was 2.74 mmol/L, the “Glucose (mean)” value ([7]; 2 mg, 3.00 h) was 3.07 mmol/L and the “Glucose (mean)” value ([7]; 2 mg, 4.00 h) was 3.64 mmol/L. For the same compound, the “Glucose (mean)” value ([7]; 2 mg, 5.00 h) was 3.88 mmol/L, the “Glucose (mean)” value ([7]; 2 mg, 6.00 h) was 6.47 mmol/L and the “Glucose (mean)” value ([7]; 2 mg, 8.00 h) was 4.61 mmol/L. For the same compound, the “Glucose (mean)” value ([7]; 2 mg, 10.00 h (dinner)) was 4.45 mmol/L, the “Glucose (mean)” value ([7]; 2 mg, 24.00 h) was 4.77 mmol/L and the “Concentration (mean)” value ([8]; 0.5 mg tablet, 0 h) was 0.0 ng/mL. The “Concentration (mean)” value ([8]; 0.5 mg, 4.00 h) was 0.0 ng/mL, the “Concentration (mean)” value ([8]; 0.5 mg, 5.00 h) was 0.0 ng/mL and the “Concentration (mean)” value ([8]; 0.5 mg, 6.00 h) was 0.0 ng/mL. For the same compound, the “Concentration (mean)” value ([8]; 0.5 mg, 8.00 h) was 0.0 ng/mL, the “Concentration (mean)” value ([8]; 0.5 mg, 10.00 h) was 0.0 ng/mL and the “Concentration (mean)” value ([8]; 0.5 mg, 24.00 h) was 0.0 ng/mL. For the same compound, the “Time at which plasma level is below detection limit” value ([8]; 1 mg tablet) was 3.0 h, the “Concentration (mean)” value ([8]; 1 mg tablet, 0 h) was 0.0 ng/mL and the “Concentration (mean)” value ([8]; 1 mg, 8.00 h) was 0.0 ng/mL. For the same compound, the “Concentration (mean)” value ([8]; 1 mg, 10.00 h) was 0.0 ng/mL, the “Concentration (mean)” value ([8]; 1 mg, 24.00 h) was 0.0 ng/mL and the “Time at which plasma level is below detection limit” value ([8]; 2 mg tablet) was 4.0 h. The Maximum concentration [8] was 50.4 ± 26.3 ng/mL, the Maximum concentration ([8]; listed as 623) was 50 ± 26 ng/mL and the “Concentration (mean)” value ([8]; 2 mg tablet, 0 h) was 0.0 ng/mL. For the same compound, the “Concentration (mean)” value ([8]; 2 mg, 8.00 h) was 0.0 ng/mL, the “Concentration (mean)” value ([8]; 2 mg, 10.00 h) was 0.0 ng/mL and the “Concentration (mean)” value ([8]; 2 mg, 24.00 h) was 0.0 ng/mL. For the same compound, the “Fall of plasma levels (comparison)” value ([8]; versus AG-EE 388 ZW, identical dose) was “fall more rapidly towards zero than the AG-EE 388 ZW levels”, the “Maximum lowering of blood glucose” value ([9]; 2 mg) was -43% and the Onset of effect ([9]; 2 mg) was 0.5 h. For the same compound, the “Time of maximum blood sugar reduction” value ([9]; 2 mg) was 1.5 h, the “Glucose, deviation against t = 0” value ([9]; 2 mg capsule, 0 h) was 0% and the “Glucose, deviation against t = 0” value ([9]; 2 mg, 0.50 h) was -10%. For the same compound, the “Glucose, deviation against t = 0” value ([9]; 2 mg, 0.75 h) was -14%, the “Glucose, deviation against t = 0” value ([9]; 2 mg, 1.00 h) was -18% and the “Glucose, deviation against t = 0” value ([9]; 2 mg, 1.25 h) was -29%. For the same compound, the “Glucose, deviation against t = 0” value ([9]; 2 mg, 1.50 h) was -43%, the “Glucose, deviation against t = 0” value ([9]; 2 mg, 1.75 h) was -40% and the “Glucose, deviation against t = 0” value ([9]; 2 mg, 2.00 h) was -33%. For the same compound, the “Glucose, deviation against t = 0” value ([9]; 2 mg, 2.50 h) was -33%, the “Glucose, deviation against t = 0” value ([9]; 2 mg, 3.00 h) was -31% and the “Glucose, deviation against t = 0” value ([9]; 2 mg, 4.00 h) was -20%. For the same compound, the “Glucose, deviation against t = 0” value ([9]; 2 mg, 5.00 h) was -22%, the “Glucose, deviation against t = 0” value ([9]; 2 mg, 6.00 h) was -28% and the “Glucose, deviation against t = 0” value ([9]; 2 mg, 7.00 h) was -22%. For the same compound, the “Glucose, deviation against t = 0” value ([9]; 2 mg, 8.00 h) was -26%.
